Reference: publication PMC11861159, “Design, synthesis, and in vitro, in vivo, and in silico evaluation of novel substituted 1,3,4-thiadiazole derivatives as anticonvulsant agents” (Frontiers in Chemistry, 2025)

Key:
MES-induced seizures = assay: Maximal electroshock-induced seizure (MES) test; format: in vivo, male Swiss albino mice; settings: for Minimum active dose (mg/kg) MES 0.5 h / Minimum active dose (mg/kg) MES 4 h: oral, lowest dose active in half or more of the mice, n = 6;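 on % protection MES 0.5 h: percent reduction of the test group versus the control group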;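 on % protection MES 4 h: percent reduction of the test group versus the control group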
induced seizures = assay: Anticonvulsant screening (MES and sc-PTZ), outcome recovery/death
mice = assay: Rotarod neurotoxicity screening; format: in vivo, male Swiss albino mice; settings: for Neurotoxicity dose (mg/kg) 0.5 h / Neurotoxicity dose (mg/kg) 4 h: rotarod, oral doses 30, 100, 300 mg/kg; for Neurotoxicity (rotarod test), result in words: at the highest dose (300 mg/kg)
Protocol: The rotarod test, as described in the literature, was used to evaluate neurotoxicity (NT) in mice. In brief, six mice (one group) were trained to balance on a spinning rod (3 cm diameter and 6 rpm speed) to familiarize with the rotarod apparatus (Orchid Scientific, India). Each mouse underwent three trials to remain on the rotating rod for over 1 minute, with the experiment’s cutoff time (180 s) remaining constant. Different pre-oral (p.o.) doses of test and standard substances were administered to the trained animals.

[1] = molecular target: T1, human carbonic anhydrase IX (Homo sapiens, UniProt Q16790); assay: Human carbonic anhydrase IX colorimetric (p-nitrophenyl acetate) inhibition assay; format: biochemical; settings: mean ± SEM, three independent experiments in triplicate; read-out: CA IX (IC50)
T1 construct: purchased Sino Biological Inc, Beijing, China
Protocol: (§1) In brief, the reaction mixture contained 60 μL of 50 mM Tris-sulfate buffer (pH 7.6, containing 0.1 mM ZnCl2),10 μL (0.5 mM) of the test compound in 1% DMSO, and 10 μL of human carbonic anhydrase II and IX (Sino Biological Inc, Beijing, China). All the ingredients were mixed well and pre-incubated at 25°C for 10 min. Substrate p-nitrophenyl acetate was prepared as a 6 mM stock solution using 5% of acetonitrile in buffer and was used fresh. […] The total assay volume was adjusted to 100 μL and further incubated at 37°C for 30 min. Furthermore, all the ingredients were mixed properly, and absorbance was measured. […] The results reported are the mean of triplicate experiments (±SEM) and expressed IC50 values, which were calculated.

PTZ-induced seizures = assay: Subcutaneous pentylenetetrazole (sc-PTZ) test; format: in vivo, male Swiss albino mice; settings: for Minimum active dose (mg/kg) Sc-PTZ 0.5 h / Minimum active dose (mg/kg) Sc-PTZ 4 h: oral, lowest dose active in half or more of the mice, n = 6;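 on % protection Sc-PTZ 0.5 h: percent reduction of the test group versus the control group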;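 on % protection Sc-PTZ 4 h: percent reduction of the test group versus the control group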
[2] = molecular target: T2, human carbonic anhydrase II (Homo sapiens, UniProt P00918); assay: Human carbonic anhydrase II colorimetric (p-nitrophenyl acetate) inhibition assay; format: biochemical; settings: mean ± SEM, three independent experiments in triplicate; read-out: CA II (IC50)
T2 construct: purchased Sino Biological Inc, Beijing, China
Protocol: as §1

Row | SMILES | % protection MES 0.5 h (MES-induced seizures; 100 mg/kg oral) [%] | % protection MES 4 h (MES-induced seizures; 100 mg/kg oral) [%] | % protection MES 0.5 h (MES-induced seizures; 300 mg/kg oral) [%] | % protection MES 4 h (MES-induced seizures; 300 mg/kg oral) [%] | Minimum active dose (mg/kg) MES 0.5 h (MES-induced seizures) [mg/kg] | Minimum active dose (mg/kg) MES 4 h (MES-induced seizures) [mg/kg] | Recovery/death (induced seizures; 30 mg/kg oral) | Recovery/death (induced seizures; 100 mg/kg oral) | Recovery/death (induced seizures; 300 mg/kg oral) | Neurotoxicity dose (mg/kg) 0.5 h (mice) | Neurotoxicity dose (mg/kg) 4 h (mice) | IC50 [1] [µM] | % protection Sc-PTZ 0.5 h (PTZ-induced seizures; 100 mg/kg oral) [%] | % protection Sc-PTZ 0.5 h (PTZ-induced seizures; 300 mg/kg oral) [%] | % protection Sc-PTZ 4 h (PTZ-induced seizures; 300 mg/kg oral) [%] | Minimum active dose (mg/kg) Sc-PTZ 0.5 h (PTZ-induced seizures) | Minimum active dose (mg/kg) Sc-PTZ 4 h (PTZ-induced seizures) [mg/kg] | IC50 [2] [µM] | Neurotoxicity (rotarod test), result in words (mice) | % protection Sc-PTZ 4 h (PTZ-induced seizures; 100 mg/kg oral) [%]
1 | O=C(Nc1nncs1)c1cccc(OCCN2CCCC2)c1 [Compound 6c, 3-(2-(pyrrolidin-1-yl)ethoxy)-N-(1,3,4-thiadiazol-2-yl)benzamide] | 26.15 | 35.38 | 38.46 | 46.13 | 100 | 100 | Recovery | Recovery | Recovery | - (The indication - (dash) denotes a lack of action at the maximum dose supplied (300 mg/kg)) | - (The indication - (dash) denotes a lack of action at the maximum dose supplied (300 mg/kg)) | 0.47 ± 0.02 | 33.81 | 29.26 | 40.21 | 100 mg/kg | 300 |  |  | 
2 | COc1ccc(C(=O)Nc2nncs2)cc1OCCN1CCCC1 [Compound 7c, 4-Methoxy-3-(2-(pyrrolidin-1-yl)ethoxy)-N-(1,3,4-thiadiazol-2-yl)benzamide] | 24.61 | 32.30 | 35.38 | 49.23 | 100 | 100 | Recovery | Recovery | Recovery | - (The indication - (dash) denotes a lack of action at the maximum dose supplied (300 mg/kg)) | - (The indication - (dash) denotes a lack of action at the maximum dose supplied (300 mg/kg)) | 0.64 ± 0.04 |  | 35.38 | 36.75 | 300 mg/kg | 300 | 0.69 ± 0.02 |  | 
3 | CC(=O)Nc1nnc(S(N)(=O)=O)s1 [Acetazolamide, reference compound] | 66.15 | 58.46 |  |  | 100 | 100 |  | Recovery |  | - (The indication - (dash) denotes a lack of action at the maximum dose supplied (300 mg/kg)) | - (The indication - (dash) denotes a lack of action at the maximum dose supplied (300 mg/kg)) |  | 73.13 |  |  | 100 mg/kg | 100 |  | no neurotoxicity | 58.46
4 | O=C(Nc1nncs1)c1cccc(OCCN2CCCCC2)c1 [Compound 6b, 3-(2-(piperidin-1-yl)ethoxy)-N-(1,3,4-thiadiazol-2-yl)benzamide] | 30.76 |  | 41.53 | 50.76 | 100 | 300 | Recovery | Recovery | Recovery | - (The indication - (dash) denotes a lack of action at the maximum dose supplied (300 mg/kg)) | - (The indication - (dash) denotes a lack of action at the maximum dose supplied (300 mg/kg)) | 0.23 ± 0.04 |  | 10.20 | 34.17 | 300 mg/kg | 300 |  |  | 
5 | CCCC(CCC)C(=O)O [Sodium valproate, reference compound] |  |  | 72.30 | 63.07 | 300 | 300 |  |  | Recovery | - (The indication - (dash) denotes a lack of action at the maximum dose supplied (300 mg/kg)) | - (The indication - (dash) denotes a lack of action at the maximum dose supplied (300 mg/kg)) |  |  | 77.72 | 63.03 | 300 mg/kg | 300 |  | no neurotoxicity | 
6 | O=C(Nc1nncs1)c1cccc(OCCN2CCOCC2)c1 [Compound 6a, 3-(2-morpholinoethoxy)-N-(1,3,4-thiadiazol-2-yl)benzamide] | 18.46 |  | 30.76 | 43.07 | 100 | 300 | Recovery | Recovery | Recovery | - (The indication - (dash) denotes a lack of action at the maximum dose supplied (300 mg/kg)) | - (The indication - (dash) denotes a lack of action at the maximum dose supplied (300 mg/kg)) | 0.4 ± 0.05 |  |  | 19.08 | - (The indication - (dash) denotes a lack of action at the maximum dose supplied (300 mg/kg)) | 300 |  |  | 
7 | COc1ccc(C(=O)Nc2nncs2)cc1OCCN1CCCCC1 [Compound 7b, 4-Methoxy-3-(2-(piperidin-1-yl)ethoxy)-N-(1,3,4-thiadiazol-2-yl)benzamide] | 29.23 |  |  | 47.69 | 100 | 300 | Recovery | Recovery | Recovery |  |  | 0.73 ± 0.02 |  | 23.07 | 32.21 | 300 mg/kg | 300 | 0.74 ± 0.03 |  | 
8 | COc1ccc(C(=O)Nc2nncs2)cc1OCCN1CCOCC1 [Compound 7a, 4-Methoxy-3-(2-morpholinoethoxy)-N-(1,3,4-thiadiazol-2-yl)benzamide] | 16.92 |  |  | 40 | 100 | 300 | Recovery | Recovery | Recovery |  |  | 0.88 ± 0.04 |  | 16.64 | 15.38 | 300 mg/kg | 300 | 0.97 ± 0.05 |  | 
